Where two headings read alike, the source gives them in different places.
Legend:
[1] = Zeta-potential measurement; assay type: physicochemical; conditions: for Zeta-pot. / mV: zeta potential of peptide, Fig S15 source data
In short: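 Aggregates: 1 mg/mL peptide, PBS pH 7.4, 1 d RT; dilute in KCl (1 mM, aq); measure mobility → zeta via Smoluchowski.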

[2] = assay type: physicochemical
In short: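 Preformed peptide fibrils (1 mg/mL) mixed with 50 µM ThT in PBS, 15 min at RT, fluorescence ex 440/em 488 nm versus PBS blank, triplicates. Zeta potential: peptides at 1 mg/mL in PBS pH 7.4, aged 1 d at RT, diluted in 1 mM KCl, Smoluchowski from electrophoretic mobility.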

[3] = ThT fluorescence relative to blank (42.1851851851852 a.u.)
[4] = ThT fluorescence relative to blank, blank = 42.1851851851852
[5] = relative to blank 42.1851851851852 a.u.

KIKQII [msis21]
Zeta Pot. / mV [1]: -12.67 mV | Zeta category ( +1 = if > 4 mV;-1 = if < -4 mV; 0 = -4mV to 4 mV) [1]: -1 (-1 = if < -4 mV) | Zeta category ( +1 = if > 4 mV;-1 = if < -4 mV; 0 = -4mV to 4 mV) ([1]; category from zeta potential): -1 (-1 = if < -4 mV) | Zeta Pot. / mV ([1]; mean, Std Zeta in next column): -12.67 mV | Zeta Pot. / mV ([1]; mean, Std in separate column): -12.67 mV | Zeta-pot. / mV [1]: -12.67 mV | Tht rel to blank (42.1851851851852) [2, 3]: 1.001 | Tht rel to blank (42.1851851851852) [2, 4]: 1.001 | Tht category (> 1.5 to blank = +) ([2]; category 1/0): 0 (ThT-inactive (N-Fold <2))

QCKIKQIINM [CK5]
Zeta Pot. / mV [1]: 10.4 mV | Zeta category ( +1 = if > 4 mV;-1 = if < -4 mV; 0 = -4mV to 4 mV) [1]: 1 (+1 = if > 4 mV) | Zeta category ( +1 = if > 4 mV;-1 = if < -4 mV; 0 = -4mV to 4 mV) ([1]; category from zeta potential): 1 (+1 = if > 4 mV) | Zeta Pot. / mV ([1]; mean, Std Zeta in next column): 10.4 mV | Zeta Pot. / mV ([1]; mean, Std in separate column): 10.4 mV | Zeta-pot. / mV [1]: 10.4 mV | Tht rel to blank (42.1851851851852) [2, 3]: 23.32 | Tht rel to blank (42.1851851851852) [2, 4]: 23.32 | Tht category (> 1.5 to blank = +) ([2]; category 1/0): 1 (ThT. Cat is 1, if Rel. ThT >2) | Tht rel to blank (42.1851851851852) [2, 5]: 23.32

KFKFQFNMW
Zeta-Pot. [1]: 22.6 | Zeta-Potential / mV ([1]; zeta-potential of peptide, source data of Figure 2C): 16.22 mV | Zeta-Potential / mV ([1]; zeta-potential of the peptide assemblies, mean, Figure 3A source data): 22.6 mV | Tht category (> 2 to blank = +) ([2]; Fig S10 panel D): 0 (ThT-inactive (N-Fold <2)) | ThT Cat, ([2]; ThT category, 1 if Rel. ThT >2): 0 (ThT-inactive (N-Fold <2)) | ThT Cat. ([2]; ThT category, 1 if Rel. ThT >2): 0 (ThT-inactive (N-Fold <2)) | ThT Cat. / ThT-Fluorescence (categorical) ([2]; ThT-active if fluorescence at least twice the control): 0 (ThT-inactive (N-Fold <2))

KFKFQFNMWQ [JG4]
Zeta category ( +1 = if > 4 mV;-1 = if < -4 mV; 0 = -4mV to 4 mV) [1]: 1 (+1 = if > 4 mV) | Zeta category ( +1 = if > 4 mV;-1 = if < -4 mV; 0 = -4mV to 4 mV) ([1]; category from zeta potential): 1 (+1 = if > 4 mV) | Zeta Pot. / mV ([1]; mean, Std Zeta in next column): 25.4 mV | Zeta Pot. / mV ([1]; mean, Std Zeta in separate column): 25.4 mV | Zeta Pot. / mV ([1]; mean, Std in separate column): 25.4 mV | Zeta-pot. / mV [1]: 25.4 mV | Tht category (> 1.5 to blank = +) ([2]; FigS26): 1 (Tht category (> 1.5 to blank = +)) | Tht rel to blank (42.1851851851852) [2, 3]: 2.807 | Tht category (> 1.5 to blank = +) ([2]; category 1/0): 1 (ThT. Cat is 1, if Rel. ThT >2) | Tht category (> 1.5 to blank = +) ([2]; category from ThT rel to blank): 1 (ThT. Cat is 1, if Rel. ThT >2) | Tht rel to blank (42.1851851851852) [2, 5]: 2.807

CHLHLQL [CN9]
Zeta category ( +1 = if > 4 mV;-1 = if < -4 mV; 0 = -4mV to 4 mV) [1]: -1 (-1 = if < -4 mV) | Zeta Pot. / mV ([1]; mean, Std Zeta in next column): -12.27 mV | Zeta-pot. / mV [1]: -12.27 mV | Tht category (> 1.5 to blank = +) ([2]; category 1/0): 1 (ThT. Cat is 1, if Rel. ThT >2) | Tht rel to blank (42.1851851851852) [2, 5]: 3.241

MKFKFQF [DF5 / CK16]
Zeta category ( +1 = if > 4 mV;-1 = if < -4 mV; 0 = -4mV to 4 mV) [1]: 0 (0 = -4mV to 4 mV) | Zeta Pot. / mV ([1]; mean, Std Zeta in next column): -3.133 mV | Zeta-pot. / mV [1]: -3.133 mV | Tht category (> 1.5 to blank = +) ([2]; category 1/0): 0 (ThT-inactive (N-Fold <2)) | Tht rel to blank (42.1851851851852) [2, 5]: 0.9846

KAKAQANMWQ [JG3]
Zeta category ( +1 = if > 4 mV;-1 = if < -4 mV; 0 = -4mV to 4 mV) [1]: -1 (-1 = if < -4 mV) | Zeta category ( +1 = if > 4 mV;-1 = if < -4 mV; 0 = -4mV to 4 mV) ([1]; category from zeta potential): -1 (-1 = if < -4 mV) | Zeta Pot. / mV ([1]; mean, Std Zeta in next column): -19.63 mV | Zeta Pot. / mV ([1]; mean, Std in separate column): -19.63 mV | Zeta-pot. / mV [1]: -19.63 mV | Tht category (> 1.5 to blank = +) ([2]; FigS26): 0 (Tht category (> 1.5 to blank = +)) | Tht rel to blank (42.1851851851852) [2, 3]: 0.9886 | Tht category (> 1.5 to blank = +) ([2]; category 1/0): 0 (ThT-inactive (N-Fold <2)) | Tht rel to blank (42.1851851851852) [2, 5]: 0.9886

CKIKQIINM [BL1]
Zeta Pot. / mV [1]: 12.9 mV | Zeta category ( +1 = if > 4 mV;-1 = if < -4 mV; 0 = -4mV to 4 mV) [1]: 1 (+1 = if > 4 mV) | Zeta category ( +1 = if > 4 mV;-1 = if < -4 mV; 0 = -4mV to 4 mV) ([1]; category from zeta potential): 1 (+1 = if > 4 mV) | Zeta Pot. / mV ([1]; mean, Std Zeta in next column): 12.9 mV | Zeta Pot. / mV ([1]; mean, Std in separate column): 12.9 mV | Zeta-pot. / mV [1]: 12.9 mV | Tht rel to blank (42.1851851851852) [2, 3]: 14.67 | Tht rel to blank (42.1851851851852) [2, 4]: 14.67 | Tht category (> 1.5 to blank = +) ([2]; category 1/0): 1 (ThT. Cat is 1, if Rel. ThT >2) | Tht rel to blank (42.1851851851852) [2, 5]: 14.67

KLKQLL [KM27 / psis14]
Zeta Pot. / mV [1]: -8.46 mV | Zeta category ( +1 = if > 4 mV;-1 = if < -4 mV; 0 = -4mV to 4 mV) [1]: -1 (-1 = if < -4 mV) | Zeta category ( +1 = if > 4 mV;-1 = if < -4 mV; 0 = -4mV to 4 mV) ([1]; category derived from the zeta potential): -1 (-1 = if < -4 mV) | Zeta Pot. / mV ([1]; mean, Std Zeta in next column): -8.46 mV | Zeta-pot. / mV [1]: -8.46 mV | Tht rel to blank (42.1851851851852) [2, 3]: 1.089 | Tht rel to blank (42.1851851851852) [2, 4]: 1.089 | Tht category (> 1.5 to blank = +) ([2]; category 1/0): 0 (ThT-inactive (N-Fold <2))
